System: Melanoderm cultures
Test: Solvable melanin assay on Melanoderm cultures (3-D skin model)
Format: cell-based
Conditions: for OD = 490 nm (melanin content, Solvable melanin assay): Melanoderm cultures fed every other day for 2 weeks, DMSO control 1.292, untreated 1.259
Procedure: This experiment was carried out using Melanoderm cultures. Luminescence was measured using a chromameter to assay the degree of melanization of a 3-D skin model.
Method for Melanoderm Cultures
Melanoderm cultures were obtained from MatTek Corporation, Ashland, Mass. The Melanoderm was maintained according to the manufacturer's instructions. The basal media used for the maintenance of the Melanoderm cultures was DMEM supplemented with unspecified quantities of Epidermal growth factor, Insulin, Hydrocortisone, and proprietary epidermal differentiation compounds, in addition to anti-fungal and antibiotics.
For the long term maintenance of the Melanoderms, the basal media was supplemented with both bFGF and a-MSH, compounds which are stimulators of melanocyte growth and melanogenesis. The cultures were fed every other day for a total of 2 weeks—fresh active preparations, prepared in DMSO or culture media, were also applied to the Melanoderms when feeding was performed. Each treatment condition was done in duplicate and digital photographs were taken of the Melanoderm cultures to assess overall pigmentation. As well, microscopic images of the Melanoderms were done to assess the cell viability of the keratinocytes and melanocytes. For further evidence that the treatments were/not cytotoxic, an LDH assay (Promega, Madison, Wis.) was performed on the supernatants from 24 hour post-treatment cultures.
To prepare tissues for assay:
After treatment, tissues are usually frozen until completion of the experiment. Thaw tissues, a few at a time and place in D-PBS to remove excess phenol red from the culture medium and residual test article. Remove a single tissue from the insert. Blot dry and place in 1.7 ml. microfuge tube. Repeat for all samples. Add 250 ul Solvable™ (Tissue and Gel Solubilizer 0.5 M—Packard BioScience Co. Catalogue No. 6NE9100 (NEF910)). Close the tube and make sure that the tissue is completely submerged. Incubate at 60° C. overnight along with standards. In the morning, vortex the samples. Sometimes thick tissues will require additional time to complete the solution process. To prepare standard: Dissolve Melanin (Sigma cat. M 8631) in Solvable at 1 mg/ml. The solution may be warmed gently for 15 minutes at 37° C. Store solution in dark. To prepare standard curve: Prepare dilutions from the standard containing 0 ug to 250 ug of melanin in a total of 250 ul Solvable. Incubate dilutions along with samples. To read assay: Cool samples and standards. Centrifuge at 13,000 rpm for 5 minutes to pellet. Fill microwell plate (C-96) with 200 ul each of samples and standards. There is some foaming of samples when pipetted. Blow gently across the samples to break bubbles prior to reading the plate. Read plate at […].

CCC(=O)n1c(=O)sc2ccccc21 [3-propionylbenzothiazol-2-one]
OD = 490 nm (melanin content, Solvable melanin assay) (125 uM): 1.522
OD = 490 nm (melanin content, Solvable melanin assay) (250 uM): 1.509
OD = 490 nm (melanin content, Solvable melanin assay) (375 uM): 1.377
OD = 490 nm (melanin content, Solvable melanin assay) (500 uM): 0.889
OD = 490 nm (melanin content, Solvable melanin assay) (750 uM): 0.727
OD = 490 nm (melanin content, Solvable melanin assay) (1000 uM): 0.184
effect on melanin synthesis (conclusion from Table 5, Melanoderm cultures): reduce melanin synthesis
